Paper PMC3691235, “Discovery of a Novel Dual Fungal CYP51/Human 5-Lipoxygenase Inhibitor: Implications for Anti-Fungal Therapy” (PLoS ONE, 2013)
Where two headings read alike, the source gives them in different places.

Assays:
[1] = target: T1, Homo sapiens CYP51 (HsCYP51) (Homo sapiens, UniProt Q16850); assay: Azole binding to HsCYP51 (type II difference spectra titration); conditions: for Kd: 5 µM HsCYP51, Morrison equation
T1 construct: made in house; host or cells: E. coli
T1 sequence (Q16850 1-509): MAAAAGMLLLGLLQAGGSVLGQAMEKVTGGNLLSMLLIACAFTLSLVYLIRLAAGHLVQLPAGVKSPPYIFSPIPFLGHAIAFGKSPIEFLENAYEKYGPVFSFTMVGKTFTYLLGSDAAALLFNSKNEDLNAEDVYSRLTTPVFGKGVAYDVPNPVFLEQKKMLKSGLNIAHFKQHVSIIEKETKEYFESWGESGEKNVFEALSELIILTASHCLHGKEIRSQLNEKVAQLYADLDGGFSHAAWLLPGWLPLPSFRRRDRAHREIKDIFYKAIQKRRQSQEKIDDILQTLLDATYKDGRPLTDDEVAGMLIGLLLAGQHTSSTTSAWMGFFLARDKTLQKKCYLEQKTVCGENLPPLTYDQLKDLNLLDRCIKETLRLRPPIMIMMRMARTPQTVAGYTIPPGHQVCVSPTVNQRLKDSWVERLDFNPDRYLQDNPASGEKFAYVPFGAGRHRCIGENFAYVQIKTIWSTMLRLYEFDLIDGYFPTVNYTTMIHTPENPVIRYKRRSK
Experimental: (§1) Native cytochrome P450 concentrations were determined by reduced carbon monoxide difference spectra, based on an extinction coefficient of 91 mM^−1 cm^−1 [42], [43]. Binding of azole antifungal agents to 5 µM CaCYP51 and 5 µM HsCYP51 were performed as previously described, [44], using 0.25 and 0.5 mg mL^−1 stock solutions of ketoconazole and ketaminazole in DMSO. Azole antifungal agents were progressively titrated against the CYP51 protein in 0.1 M Tris-HCl (pH 8.1) and 25% (wt/vol) glycerol, with the spectral difference determined after each incremental addition of azole. The dissociation constant (Kd) of the enzyme-azole complex was determined by nonlinear regression (Levenberg-Marquardt algorithm) of ΔA peak-trough against azole concentration using a rearrangement of the Morrison equation [45] and fitted by the computer program ProFit 6.1.12 (QuantumSoft, Zurich, Switzerland).

[2] = target: T2, C. albicans CYP51 (CaCYP51) (Candida albicans, UniProt P10613); assay: biochemical; format: binding
T2 construct: made in house; host or cells: E. coli
Experimental: as §1

[3] = target: T1, Homo sapiens CYP51 (HsCYP51); design: method as in PMID 20149798; conditions: ref [40]; read-out: Kd with HsCYP51, previously reported; cited from earlier work

T2 sequence (P10613 whole entry): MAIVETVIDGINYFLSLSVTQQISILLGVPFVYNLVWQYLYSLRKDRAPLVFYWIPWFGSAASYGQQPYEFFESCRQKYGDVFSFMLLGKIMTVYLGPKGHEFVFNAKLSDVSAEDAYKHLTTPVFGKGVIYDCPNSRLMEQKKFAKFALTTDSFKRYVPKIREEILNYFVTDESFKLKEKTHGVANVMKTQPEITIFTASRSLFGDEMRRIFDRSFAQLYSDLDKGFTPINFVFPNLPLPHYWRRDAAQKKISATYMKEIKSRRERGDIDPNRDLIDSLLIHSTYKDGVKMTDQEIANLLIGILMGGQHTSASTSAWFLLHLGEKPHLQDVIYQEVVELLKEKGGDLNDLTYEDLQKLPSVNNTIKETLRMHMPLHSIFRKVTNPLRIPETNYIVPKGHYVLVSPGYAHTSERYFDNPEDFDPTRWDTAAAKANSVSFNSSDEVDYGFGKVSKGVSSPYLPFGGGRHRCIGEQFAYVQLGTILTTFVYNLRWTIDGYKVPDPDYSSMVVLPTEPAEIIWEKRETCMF

Row | selectivity for yeast CYP51 relative to human CYP51 ([1]; yeast vs human CYP51) [fold] | Kd ([2]; 5 µM CaCYP51, Morrison equation, read-out: Kd with CaCYP51) [nM] | IC50 ([2]; in vitro) [nM] | SMILES | Kd [1] [nM] | Kd [3] [nM] | fold tighter binding to HsCYP51 compared to ketaminazole (16) ([1]; ratio of Kd values) [fold] | Kd [2] [nM] | fold difference in binding to CaCYP51 compared to ketaminazole (16) ([2]; ratio of Kd values) [fold]
1 | 17 | 43 ± 5 | 43 | CC(=O)N1CCN(c2ccc(NCC3COC(Cn4ccnc4)(c4ccc(Cl)cc4Cl)O3)cc2)CC1 (stereo not drawn) [ketaminazole (16), ketaminazole] | 731 ± 69 |  |  |  | 
2 |  |  |  | CC(=O)N1CCN(c2ccc(OCC3COC(Cn4ccnc4)(c4ccc(Cl)cc4Cl)O3)cc2)CC1 (stereo not drawn) [ketoconazole, reference compound] | 42 ± 16 | ~180 | 17 | 27 ± 5 | 1.6
